Measurements as given in patent US20220213119A1, “THIENOHETEROCYCLIC DERIVATIVE, PREPARATION METHOD THEREFOR AND MEDICAL USE THEREOF” (Jiangsu Hengrui Medicine Ca, Lid., priority 2019, published 2022).

Key:
[1] = target: T1, ERK2 (Homo sapiens, UniProt P28482); experiment: ERK2 enzyme activity test (ADP-Glo Kinase Assay); assay type: biochemical; conditions: chemiluminescence
T1 construct: purchased R&D 1230-KS-010
Protocol: The purpose of this experiment is to detect the inhibitory ability of the compounds on the ERK2 enzyme activity and evaluate the activity of the compounds in vitro according to IC50. The ADP-Glo™ Kinase Assay Kit was used in this experiment. Under the action of enzyme, the substrate was phosphorylated and ADP was produced at the same time. The ADP-Glo Reagent was added to remove unreacted ATP in the reaction system. The kinase detection reagent was used to detect the ADP produced by the reaction. In the presence of the compound, the inhibition rate of the compound was calculated by measuring the signal value.
Enzyme and substrate preparation: ERK2 (1230-KS-010, R&D) and substrate (Custom peptides, Gill Biochemical) were prepared to be 0.75 ng/μl and 1500 μM in the buffer (40 mM Tris, 20 mM MgCl2, 0.1 mg/mL BSA, 50 μM DTT). The enzyme solution and substrate solution were then prepared into a mixed solution at a volume ratio of 2:1 for later use. ATP was diluted to 500 μM with the buffer. The compounds were dissolved in DMSO (dimethyl sulfoxide, Shanghai Titan Scientific Co., Ltd.) to prepare a stock solution with an initial concentration of 20 mM, and then Bravo was used to prepare solutions of the compounds. Finally, a 3 μL of a mixed solution of enzyme and substrate, and 1 μL of different concentrations of the compound (the initial concentration is 50 μM, 4-fold dilution) were added to each well of the 384-well plate, and the plate was incubated at 30° C. for 10 minutes, and finally 1 μL of 500 μM ATP solution was added to each well, and the plate was incubated at 30° C. for 2 hours. Then 5 μL of ADP-Glo was added, and the plate was incubated at 30° C. for 40 minutes. Then 10 μL of Kinase detection buffer was added, and the plate was incubated at 30° C. for 40 minutes. The 384-well plate was taken out and placed in a microplate reader (BMG labtech, PHERAstar FS), and the chemiluminescence was measured by the microplate reader.
(§1) The data were processed and analyzed with Microsoft Excel, Graphpad Prism 5.

[2] = tested on: Colo205 cells; experiment: In vitro proliferation inhibition test on Colo205 tumor cells (CellTiter-Glo); assay type: cell-based; conditions: Homo sapiens, COLO 205, 72 h; Colo205 cell proliferation, 3 days of culture, CTG
Protocol: The purpose of this experiment is to test the inhibitory activity of the compounds on the proliferation of Colo205 cells (CCL-222, ATCC) in vitro. The cells were treated with different concentrations of compounds in vitro. After 3 days of culture, the cell proliferation was detected using CTG (CellTiter-Glo® Luminescent Cell Viability Assay, Promega, catalog number: G7573) reagent. The in vitro activity of the compounds was evaluated according to the IC50 value.
In the following, taking the in vitro proliferation inhibition test method of Colo205 cells as an example, the method in the present disclosure for testing the in vitro proliferation inhibitory activity of the compounds of the present disclosure is described. This method is also applicable to, but not limited to, the in vitro proliferation inhibitory activity test on other tumor cells.
Colo205 cells were digested, centrifuged and then resuspended. The single cell suspension was mixed well, and the density of viable cells was adjusted to 5.0×10^4 cells/ml with cell culture medium (RPMI1640+2% FBS), and 95 μl/well was added to a 96-well cell culture plate. Only 100 μl medium was added to the peripheral wells of the 96-well plate. The culture plate was incubated in an incubator for 24 hours (37° C., 5% CO2).
The compound was dissolved in DMSO (dimethyl sulfoxide, Shanghai Titan Scientific Co., Ltd.) and prepared into a stock solution with an initial concentration of 20 mM. The initial concentration of the small molecule compound is 2 mM, and then 4-fold diluted into to 9 points, and the tenth point is DMSO. Another 96-well plate was taken, 90 μl of cell culture medium (RPMI1640+2% FBS) was added to each well, then 10 μl of different concentrations of the test sample was added to each well, the mixture was mixed well, and then 5 μl of different concentrations of the test sample was added to the cell culture plate, and each sample has two duplicate holes. The culture plate was incubated in the incubator for 3 days (37° C., 5% CO2). The 96-well cell culture plate was taken out, 50 μl CTG solution was added to each well, and the plate was incubated for 10 minutes at room temperature. In a microplate reader (BMG labtech, PHERAstar FS), chemiluminescence was measured with the microplate reader.
as §1

[3] = Pharmacokinetics assay in mice; assay type: in vivo; conditions: mouse, po, C57 mice (female), intragastric, 2 mg/kg, plasma; for Vd/F: read-out: Apparent distribution volume Vz/F; for AUC: read-out: Area under curve AUC; for CL/F: read-out: Clearance CLz/F; for half-life: read-out: Half Life T1/2 (converted); for Cmax: read-out: Plasma Concentration Cmax; for MRT: read-out: Residence Time MRT
Protocol: Mice were used as the test animal. The drug concentration in plasma at different time points was determined by LC/MS/MS method after administration of compound 3-P2, compound 4-P2, compound 9-P2, compound 10-P2, compound 12 and compound 15. The pharmacokinetic behavior of the compounds of the present disclosure in mice was studied, and the pharmacokinetic characteristics were evaluated.
54 of C57 mice (female) were equally divided into 6 groups, which were purchased from Shanghai Jiesijie Laboratory Animal Co., Ltd., with the animal production license number: SOCK (Shanghai) 2013-0006.
A certain amount of compound was weighted, followed by the addition of 5% volume of DMSO and 5% Tween 80 to dissolve it, then followed by the addition of 90% normal saline to prepare a colorless and clear solution of 0.1 mg/mL.
After an overnight fast, C57 mice were intragastrically administered the test compound at an administration dose of 2 mg/kg and an administration volume of 0.2 ml/10 g.
The mice were intragastrically administered the test compounds. 0.1mL of blood was taken before the administration and at 0.25, 0.5, 1.0, 2.0, 4.0, 6.0, 8.0, 11.0, 24.0 hours after the administration. The blood was placed in a heparinized test tube, and centrifuged at 3500 rpm for 10 minutes. The plasma was separated and stored at −20° C.
The content of the test compound in the plasma of mice after […] administration of the test compound at different concentrations was determined: 25 μl of mouse plasma at each time point after the administration was taken, followed by the addition of 50 μl of the internal standard camptothecin solution (100 ng/mL) and 200 μl of acetonitrile. The resulting solution was vortex-mixed for 5 minutes, and centrifuged for 10 minutes (4000 rpm). 4μl of the supernatant was taken from the plasma samples for LC/MS/MS analysis.

T1 sequence (P28482 whole entry): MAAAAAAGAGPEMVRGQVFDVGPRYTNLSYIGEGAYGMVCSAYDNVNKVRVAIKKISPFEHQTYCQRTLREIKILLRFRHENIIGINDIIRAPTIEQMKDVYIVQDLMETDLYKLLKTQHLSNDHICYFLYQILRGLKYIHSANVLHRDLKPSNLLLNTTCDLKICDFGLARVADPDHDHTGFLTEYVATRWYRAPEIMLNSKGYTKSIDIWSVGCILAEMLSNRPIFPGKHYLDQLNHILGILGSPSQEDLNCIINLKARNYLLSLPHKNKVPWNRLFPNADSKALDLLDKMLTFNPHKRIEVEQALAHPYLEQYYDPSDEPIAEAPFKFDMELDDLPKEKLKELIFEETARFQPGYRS

SMILES | IC50 [1] [nM] | IC50 [2] [nM] | further results
O=C(CN1CCc2sc(-c3nc(NC4CCOCC4)ncc3Cl)cc2C1=O)N[C@H](CO)c1cccc(Cl)c1 [Example 1, (S)-2-(2-(5-Chloro-2-((tetrahydro-2H-pyran-4-yl)amino)pyrimidin-4-yl)-4-oxo-6,7-dihydrothieno[3,2-c]pyridin-5(4H)-yl)-N-(1-(3-chlorophenyl)-2-hydroxyethyl)acetamide] | 1 | 8 | –
CC1(C)c2sc(-c3nc(NC4CCOCC4)ncc3Cl)cc2C(=O)N1CC(=O)N[C@H](CO)c1cccc(Cl)c1 [Example 2, (S)-2-(2-(5-Chloro-2-((tetrahydro-2H-pyran-4-yl)amino)pyrimidin-4-yl)-6,6-dimethyl-4-oxo-4,6-dihydro-5H-thieno[2,3-c]pyrrol-5-yl)-N-(1-(3-chlorophenyl)-2-hydroxyethyl)acetamide] | 3 | – | –
Cc1cccc([C@@H](CO)NC(=O)[C@H](C)N2CCc3sc(-c4nc(NC5CCOCC5)ncc4Cl)cc3C2=O)c1 [Example 3-P1, (S)-2-(2-(5-Chloro-2-((tetrahydro-2H-pyran-4-yl)amino)pyrimidin-4-yl)-4-oxo-6,7-dihydrothieno[3,2-c]pyridin-5(4H)-yl)-N-((S)-2-hydroxy-1-(m-methylphenyl)ethyl)propionamide] | 203 | – | –
Cc1cccc([C@@H](CO)NC(=O)[C@@H](C)N2CCc3sc(-c4nc(NC5CCOCC5)ncc4Cl)cc3C2=O)c1 [Example 3-P2, (R)-2-(2-(5-Chloro-2-((tetrahydro-2H-pyran-4-yl)amino)pyrimidin-4-yl)-4-oxo-6,7-dihydrothieno[3,2-c]pyridin-5(4H)-yl)-N-((S)-2-hydroxy-1-(m-methylphenyl)ethyl)propionamide] | 4 | 26 | Vd/F [3]: 2.98 L/kg; AUC [3]: 914 ng·h/mL; CL/F [3]: 36.5 mL/min/kg; half-life [3]: 0.945 h; Cmax [3]: 708 ng/mL; MRT [3]: 1.16 h
C[C@@H](C(=O)N[C@H](CO)c1cccc(Cl)c1)N1CCc2sc(-c3nc(NC4CCOCC4)ncc3Cl)cc2C1=O [Example 4-P1, (S)-2-(2-(5-Chloro-2-((tetrahydro-2H-pyran-4-yl)amino)pyrimidin-4-yl)-4-oxo-6,7-di hydrothieno[3,2-c]pyridin-5(4H)-yl)-N-((S)-1-(3-chlorophenyl)-2-hydroxyethyl)propionamide] | 434 | – | –

More lines, main results first:

IC50 [1] [nM] | IC50 [2] [nM] | SMILES | further results
6 | 29 | C[C@H](C(=O)N[C@H](CO)c1cccc(Cl)c1)N1CCc2sc(-c3nc(NC4CCOCC4)ncc3Cl)cc2C1=O [Example 4-P2] | Vd/F [3]: 8.09 L/kg; AUC [3]: 364 ng·h/mL; CL/F [3]: 91.5 mL/min/kg; half-life [3]: 1.02 h; Cmax [3]: 376 ng/mL; MRT [3]: 1.14 h
22 | – | CC(C(=O)N[C@H](CO)c1cccc(Cl)c1)N1C(=O)c2cc(-c3nc(NC4CCOCC4)ncc3Cl)sc2C1(C)C (stereo partly drawn) [Example 5, 2-(2-(5-Chloro-2-((tetrahydro-2H-pyran-4-yl)amino)pyrimidin-4-yl)-6,6-dimethyl-4-oxo-4,6-dihydro-5H-thieno[2,3-c]pyrrol-5-yl)-N-((S)-1-(3-chlorophenyl)-2-hydroxyethyl)propionamide] | –
29 | – | O=C(CN1CCc2sc(-c3ccnc(NC4CCOCC4)n3)cc2C1=O)N[C@H](CO)c1cccc(Cl)c1 [Example 6, (S)-N-(1-(3-Chlorophenyl)-2-hydroxyethyl)-2-(4-oxo-2-(2-((tetrahydro-2H-pyran-4-yl)amino)pyrimidin-4-yl)-6,7-dihydrothieno[3,2-c]pyridin-5(4H)-yl)acetamide] | –
3 | 38 | Cc1cccc([C@@H](CO)NC(=O)CN2CCc3sc(-c4nc(Nc5ccnn5C)ncc4C)cc3C2=O)c1 [Example 7, (S)-N-(2-Hydroxy-1-(m-methylphenyl)ethyl)-2-(2-(5-methyl-2-((1-methyl-1H-pyrazol-5-yl)amino)pyrimidin-4-yl)-4-oxo-6,7-dihydrothieno[3,2-c]pyridin-5(4H)-yl)acetamide] | –
410 | – | COc1cc(F)cc([C@@H](CO)NC(=O)[C@H](C)N2CCc3sc(-c4nc(NC5CCOCC5)ncc4Cl)cc3C2=O)c1 [Example 9-P1, (S)-2-(2-(5-Chloro-2-((tetrahydro-2H-pyran-4-yl)amino)pyrimidin-4-yl)-4-oxo-6,7-dihydrothieno[3,2-c]pyridin-5(4H)-yl)-N-((S)-1-(3-fluoro-5-methoxyphenyl)-2-hydroxyethyl)prop ionamide] | –
9 | 26 | Cc1cccc([C@@H](CO)NC(=O)[C@@H](C)N2CCc3sc(-c4nc(N[C@@H](C)CO)ncc4Cl)cc3C2=O)c1 [Example 13, (R)-2-(2-(5-Chloro-2-(((S)-1-hydroxypropan-2-yl)amino)pyrimidin-4-yl)-4-oxo-6,7-dihydrothieno[3,2-c]pyridin-5(4H)-yl)-N-((S)-2-hydroxy-1-(m-methylphenyl)ethyl)propionamide] | –
